Measured values: US10780057B2, “Casein-based silica dual drug-loading composite microcapsule and preparation method therefor” (SHAANXI UNIVERSITY OF SCIENCE & TECHNOLOGY, priority 2016, dated 2020)

Key:
[1] = Drug loading efficiency of casein-based silica dual drug-loaded composite microcapsule; type: physicochemical; settings: casein-based SiO2 dual-loaded microcapsules; drug A ibuprofen on outer wall of capsule, drug B aspirin in core of capsule
Excerpt: (§1) The samples used in Table 1 were the casein-based SiO2 dual-loaded microcapsules obtained by loading the drug A-buprofen on the outer wall of the capsule and the drug B aspirin in the core of the capsule.

[2] = Cumulative drug release from casein-based silica dual drug-loaded composite microcapsule; type: physicochemical; settings: after 40 h; casein-based SiO2 dual-loaded microcapsules; drug A ibuprofen on outer wall of capsule, drug B aspirin in core of capsule
Excerpt: as §1

| Drug loading efficiency (%) [1] [%] | 40 h cumulative release rate (%) [2] [%] | Compound |
| --- | --- | --- |
| 69 | 88 | CC(C)Cc1ccc(C(C)C(=O)O)cc1 (stereo not shown) [Drug A: ibuprofen, ibuprofen] |
| 86 | 60 | CC(=O)Oc1ccccc1C(=O)O [Drug B: aspirin, aspirin] |
